Consider 31 compounds from patent US10280149B2, “Therapeutic compounds and uses thereof” (GENENTECH, INC., priority 2015, dated 2019).

Molecules are shown by their SMILES.

Chain of Full length KDM2B (Q8NHM5 whole entry): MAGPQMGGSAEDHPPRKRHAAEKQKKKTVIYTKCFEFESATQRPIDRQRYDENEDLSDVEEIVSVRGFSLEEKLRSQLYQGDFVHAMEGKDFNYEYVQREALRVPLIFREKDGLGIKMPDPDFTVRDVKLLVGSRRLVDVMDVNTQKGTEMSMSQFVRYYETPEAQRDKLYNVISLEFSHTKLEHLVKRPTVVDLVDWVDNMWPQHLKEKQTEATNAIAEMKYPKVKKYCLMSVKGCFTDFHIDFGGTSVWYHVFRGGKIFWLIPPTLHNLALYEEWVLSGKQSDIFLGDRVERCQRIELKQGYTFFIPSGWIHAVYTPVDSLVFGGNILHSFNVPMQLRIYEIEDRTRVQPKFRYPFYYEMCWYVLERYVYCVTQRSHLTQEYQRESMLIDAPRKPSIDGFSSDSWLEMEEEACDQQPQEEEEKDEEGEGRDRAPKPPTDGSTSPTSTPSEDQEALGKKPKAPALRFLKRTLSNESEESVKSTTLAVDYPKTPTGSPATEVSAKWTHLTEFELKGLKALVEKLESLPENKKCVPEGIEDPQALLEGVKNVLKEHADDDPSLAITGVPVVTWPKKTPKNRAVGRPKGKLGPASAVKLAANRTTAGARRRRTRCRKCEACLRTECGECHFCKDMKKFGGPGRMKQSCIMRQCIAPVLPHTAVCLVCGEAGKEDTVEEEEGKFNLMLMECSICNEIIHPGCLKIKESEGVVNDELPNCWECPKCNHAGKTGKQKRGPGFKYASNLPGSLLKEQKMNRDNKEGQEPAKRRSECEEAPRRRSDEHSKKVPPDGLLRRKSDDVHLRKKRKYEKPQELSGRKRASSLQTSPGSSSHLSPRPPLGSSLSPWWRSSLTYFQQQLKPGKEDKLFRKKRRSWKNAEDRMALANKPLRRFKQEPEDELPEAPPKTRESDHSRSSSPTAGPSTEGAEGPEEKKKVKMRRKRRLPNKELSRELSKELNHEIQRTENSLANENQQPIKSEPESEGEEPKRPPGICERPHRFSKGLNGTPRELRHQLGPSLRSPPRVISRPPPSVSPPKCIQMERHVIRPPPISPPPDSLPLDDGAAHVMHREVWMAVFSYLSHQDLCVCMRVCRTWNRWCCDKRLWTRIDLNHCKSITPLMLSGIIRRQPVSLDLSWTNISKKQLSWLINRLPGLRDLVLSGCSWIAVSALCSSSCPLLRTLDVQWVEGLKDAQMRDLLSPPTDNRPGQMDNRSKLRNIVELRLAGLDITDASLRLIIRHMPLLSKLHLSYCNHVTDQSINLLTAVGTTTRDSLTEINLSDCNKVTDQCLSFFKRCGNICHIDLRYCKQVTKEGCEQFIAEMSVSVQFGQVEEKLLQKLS

This assay addresses Full length KDM2B (Homo sapiens (Human), UniProt Q8NHM5). Briefly: KDM2B TR-FRET assay for determining inhibitor IC50. The note with it: TR-FRET (HTRF), biotin-H3K36me2 peptide substrate, 2-OG 0.3 μM or 6 μM. Type of assay: biochemical. An excerpt: KDM2B TR-FRET Assay for Determining Inhibitor IC50
The KDM2B TR-FRET Assay described above represents an additional embodiment of the invention.
In general terms: In TR-FRET formats the signal depends on donor and acceptor labels being close together.
A word on the IC50: it is the concentration needed to halve the response being measured. `O=C(c1cccc(Cl)c1)C1CCCN(C2CCCC2)C1` (stereo not shown) [Example 3, (3-chlorophenyl)-(1-cyclopentyl-3-piperidyl)methanone] returned an IC50 of 23000 nM. In other words, the double-digit micromolar range.

The compound `O=C(c1cccc(Oc2ccccc2)c1)C1CCCN(CC2CC2)C1` (stereo not shown) [Example 21, [1-(cyclopropylmethyl)-3-piperidyl]-(3-phenoxyphenyl)methanone] registered an IC50 of 461 nM.

Take `CCCN1CCCC(C(=O)c2ccc(Cl)cc2)C1` (stereo not shown) [Example 91, (4-chlorophenyl)-(1-propyl-3-piperidyl)methanone]: the IC50 worked out at 1600 nM.

`COc1ccc2cc(C(=O)[C@H]3CN(C4CCC4)CC[C@H]3C(C)C)ccc2c1` (single isomer, unassigned) [Example 143b, (1-cyclobutyl-4-isopropylpiperidin-3-yl)(6-methoxynaphthalen-2-yl)methanone] showed an IC50 of 15.9 nM. Against the preceding compound, the IC50 is about 100-fold lower.

For `O=C(c1ccc(Cl)cc1)[C@H]1CCCN(CC2CC2)C1` (stereo in doubt) [Example 116b, (4-chlorophenyl)(1-(cyclopropylmethyl)piperidin-3-yl)methanone], it took 1400 nM to reach half-maximal inhibition (IC50). This IC50 is about 88-fold higher than that of the compound before.

Turning to `COc1ccc2cc(C(=O)[C@@H]3CN(C4CCC4)CC[C@@H]3c3ccccc3)ccc2c1` (single isomer, unassigned) [Example 141a, (1-cyclobutyl-4-phenylpiperidin-3-yl)(6-methoxynaphthalen-2-yl)methanone], inhibition was half-maximal at 1000 nM (IC50).

The compound `COc1ccc2cc(C(=O)C3CC(O)CN(CC4CC4)C3)ccc2c1` (stereo not shown) [Example 155, (1-(cyclopropylmethyl)-5-hydroxypiperidin-3-yl)(6-methoxynaphthalen-2-yl)methanone] registered a 50% inhibitory concentration (IC50) of 779 nM.

The compound `CCN1CCCC(C(=O)c2ccc3cc(OC)ccc3c2)C1` (stereo not shown) [Example 74, (1-ethyl-3-piperidyl)-(6-methoxy-2-naphthyl)methanone] registered a concentration for half-maximal inhibition (IC50) of 1150 nM.

As for `COc1ccc2cc(C(=O)C3CCCN(C4CCCC4)C3)ccc2c1C` (stereo not shown) [Example 51, (1-cyclopentyl-3-piperidyl)-(6-methoxy-5-methyl-2-naphthyl)methanone], 118 nM corresponded to half-maximal inhibition (IC50).

`O=C(c1ccc2c(OCc3ccccc3)cccc2c1)C1CCCN(CC2CC2)C1` (stereo not shown) [Example 123, (5-(benzyloxy)naphthalen-2-yl)(1-(cyclopropylmethyl)piperidin-3-yl)methanone] yielded a half-maximal inhibitory concentration (IC50) of 90.9 nM.

Compound `CCCN1CCCC(C(=O)c2ccc3cccc(C)c3c2)C1` (stereo not shown) [Example 60, (8-methyl-2-naphthyl)-(1-propyl-3-piperidyl)methanone] returned an IC50 of 125 nM. The IC50 values of the last two compounds are within 1.5-fold of each other.

`Cc1cccc2ccc(C(=O)C3CCCN(C4CCC4)C3)cc12` (stereo not shown) [Example 62, (1-cyclobutyl-3-piperidyl)-(8-methyl-2-naphthyl)methanone] returned an IC50 of 103 nM.

`COc1ccc2cc(C(=O)[C@H]3CN(CC4CC4)CC[C@H]3C)ccc2c1` (single isomer, unassigned) [Example 137c, (1-(cyclopropylmethyl)-4-methylpiperidin-3-yl)(6-methoxynaphthalen-2-yl)methanone] had a half-inhibitory concentration (IC50) of 1100 nM.

Compound `O=C(c1ccc(Cl)cc1)[C@@H]1CCCN(CC2CC2)C1` (stereo in doubt) [Example 116a, (4-chlorophenyl)(1-(cyclopropylmethyl)piperidin-3-yl)methanone] came in with an IC50 of 5800 nM.

Take `CCC1CCN(C2CC2)CC1C(=O)c1ccc2cc(OC)ccc2c1` (single isomer, unassigned) [Example 147b, (1-cyclopropyl-4-ethylpiperidin-3-yl)(6-methoxynaphthalen-2-yl)methanone]: the midpoint of inhibition, the IC50, lay at 4.9 nM.

In the case of `N#Cc1cc(C(=O)C2CCCN(C3CCCC3)C2)cc2ccccc12` (stereo not shown) [Example 45, 3-(1-cyclopentylpiperidine-3-carbonyl)naphthalene-1-carbonitrile], the IC50 stood at 267 nM.

For `O=C(c1ccc2cnccc2c1)C1CCCN(C2CCC2)C1` (stereo not shown) [Example 135], the IC50 is 226 nM.

Take `CS(=O)(=O)c1ccc2cc(C(=O)C3CCCN(C4CCCC4)C3)ccc2c1` (stereo not shown) [Example 171, (1-cyclopentylpiperidin-3-yl)(6-(methylsulfonyl)naphthalen-2-yl)methanone]: the IC50 was determined as 102 nM.

In the case of `CC[C@@H]1CCN(C2CCC2)C[C@H]1C(=O)c1ccc2c(CC#N)c(OC)ccc2c1` (stereo in doubt) [Example 183a, 2-(6-(1-cyclobutyl-4-ethylpiperidine-3-carbonyl)-2-methoxynaphthalen-1-yl)acetonitrile], it took 55.2 nM to reach half-maximal inhibition (IC50).

As to `COc1cccc(C(=O)[C@@H]2CCCN(CC3CC3)C2)c1` (stereo in doubt) [Example 109a, (1-(cyclopropylmethyl)piperidin-3-yl)(3-methoxyphenyl)methanone], it took 14100 nM to reach half-maximal inhibition (IC50).

Turning to `CS(=O)(=O)c1ccc2cc(C(=O)C3CCCN(C4CCC4)C3)ccc2c1` (stereo not shown) [Example 170, (1-cyclobutylpiperidin-3-yl)(6-(methylsulfonyl)naphthalen-2-yl)methanone], half-maximal inhibition (IC50) required 42.6 nM.

The compound `COc1ccc2cc(C(=O)C3CCCN(C4CCC4)C3)ccc2c1C` (stereo not shown) [Example 52, (1-cyclobutyl-3-piperidyl)-(6-methoxy-5-methyl-2-naphthyl)methanone] registered a half-inhibitory concentration (IC50) of 39.4 nM.

Turning to `CC[C@H]1CCN(C2CCC2)C[C@H]1C(=O)c1ccc2c(CC#N)c(OC)ccc2c1` (stereo in doubt) [Example 183d, 2-(6-(1-cyclobutyl-4-ethylpiperidine-3-carbonyl)-2-methoxynaphthalen-1-yl)acetonitrile], half-maximal inhibition (IC50) was put at 1.53 nM.

As for `COc1ccc2cc(C(=O)C3CN(CC4CC4)CCC3C(F)(F)F)ccc2c1` (single isomer, unassigned) [Example 138b, (1-(cyclopropylmethyl)-4-(trifluoromethyl)piperidin-3-yl)(6-methoxynaphthalen-2-yl)methanone], it took 4800 nM to reach half-maximal inhibition (IC50).

`COc1ccc2cc(C(=O)[C@@H]3CN(C4CCC4)CC[C@@H]3CC(C)C)ccc2c1` (single isomer, unassigned) [Example 144a, (1-cyclobutyl-4-isobutylpiperidin-3-yl)(6-methoxynaphthalen-2-yl)methanone] returned an IC50 of 5.6 nM.

Take `COc1ccc2cc(C(=O)[C@H]3CN(CC4CC4)CC[C@@H]3C)ccc2c1` (single isomer, unassigned) [Example 137d, (1-(cyclopropylmethyl)-4-methylpiperidin-3-yl)(6-methoxynaphthalen-2-yl)methanone]: the IC50 was found to be 3300 nM.

As for `CCCN1CCCC(C(=O)c2cccc(Cl)c2)C1` (stereo not shown) [Example 92, (3-chlorophenyl)-(1-propyl-3-piperidyl)methanone], the IC50 was 723 nM. This IC50 lies about 4.6-fold lower than the previous one.

Compound `Cc1cccc2ccc(C(=O)C3CCCN(C4CCCC4)C3)cc12` (stereo not shown) [Example 61, (1-cyclopentyl-3-piperidyl)-(8-methyl-2-naphthyl)methanone] showed an IC50 of 174 nM. Against the preceding compound, the IC50 is about 4.2-fold lower.

For the compound `CS(=O)(=O)c1ccc2cc(C(=O)C3CCCN(CC4CC4)C3)ccc2c1` (stereo not shown) [Example 169, (1-(cyclopropylmethyl)piperidin-3-yl)(6-(methylsulfonyl)naphthalen-2-yl)methanone], the IC50 was 112 nM.

In turn, `CCCN1CCCC(C(=O)c2ccc3c(CC#N)c(OC)ccc3c2)C1` (stereo not shown) [Example 56, 2-[2-methoxy-6-(1-propylpiperidine-3-carbonyl)-1-naphthyl]acetonitrile] gave an IC50 of 270 nM.

In turn, `CCCN1CCCC(C(=O)c2cccc(OC)c2)C1` (stereo not shown) [Example 98, (3-methoxyphenyl)-(1-propyl-3-piperidyl)methanone] registered an IC50 of 1600 nM.
